In US10183943B2, “Heterocyclic compounds and their use in preventing or treating bacterial infections” (MUTABILIS, priority 2015, dated 2019) one finds IC50 and MIC data, which are given here for 8 molecules.

Some results are limits rather than exact numbers.

Assay [1] has as its target T1, TEM-1 (Escherichia coli, UniProt P62593).
T1 construct: made in house; host or cells: E. coli
Briefly: β-lactamase inhibitory activity, determination of IC50 (nitrocefin hydrolysis). Type of assay: biochemical.

The target of assay [2] is T2, SHV-1 (Klebsiella pneumoniae, UniProt P0AD64).
T2 construct: made in house; host or cells: E. coli
T2 sequence (P0AD64 22-286): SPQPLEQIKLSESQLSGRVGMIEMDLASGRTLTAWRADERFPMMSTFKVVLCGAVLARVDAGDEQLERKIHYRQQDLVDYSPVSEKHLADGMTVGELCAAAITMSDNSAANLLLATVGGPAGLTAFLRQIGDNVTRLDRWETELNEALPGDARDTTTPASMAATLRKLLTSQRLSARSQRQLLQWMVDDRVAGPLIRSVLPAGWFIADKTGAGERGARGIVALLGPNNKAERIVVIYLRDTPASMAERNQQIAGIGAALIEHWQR
The description is as above. In kind it is biochemical.

For assay [3], the target named is T3, CTX-M-15 (Escherichia coli, UniProt Q9EXV5).
T3 construct: made in house; host or cells: E. coli
T3 sequence (Q9EXV5 entry or part of it): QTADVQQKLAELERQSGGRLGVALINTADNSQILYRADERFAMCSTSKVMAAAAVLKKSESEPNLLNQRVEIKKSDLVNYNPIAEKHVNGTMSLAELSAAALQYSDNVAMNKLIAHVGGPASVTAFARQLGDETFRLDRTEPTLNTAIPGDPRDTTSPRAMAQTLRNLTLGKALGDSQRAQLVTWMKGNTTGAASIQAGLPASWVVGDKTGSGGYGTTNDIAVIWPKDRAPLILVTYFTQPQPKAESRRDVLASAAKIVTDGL
The assay is described as above. Type of assay: biochemical. The settings on record: class (A); nitrocefin 200 μM, 30 min pre-incubation; read-out: IC50 β-lactamase CTX-M-15.

The target of assay [4] is T4, KPC-2 (Klebsiella pneumoniae, UniProt Q9F663).
T4 construct: made in house; host or cells: E. coli
T4 sequence (Q9F663 25-293 limits assumed): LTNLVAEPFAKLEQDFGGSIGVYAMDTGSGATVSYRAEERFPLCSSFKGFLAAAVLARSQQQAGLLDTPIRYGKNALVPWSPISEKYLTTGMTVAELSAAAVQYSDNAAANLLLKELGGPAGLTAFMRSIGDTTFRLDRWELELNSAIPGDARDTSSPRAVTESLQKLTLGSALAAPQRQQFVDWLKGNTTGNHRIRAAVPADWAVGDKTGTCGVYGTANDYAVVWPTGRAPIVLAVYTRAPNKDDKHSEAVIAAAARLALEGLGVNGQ
The description is as above. Type of assay: biochemical. The settings on record: class (A); nitrocefin 200 μM, 30 min pre-incubation; read-out: IC50 β-lactamase KPC-2.

Assay [5] addresses T5, OXA-1 (Escherichia coli, UniProt P13661).
T5 construct: made in house; host or cells: E. coli
The assay is described as above. In kind it is biochemical. The settings on record: class (D); nitrocefin 200 μM, 30 min pre-incubation; read-out: IC50 β-lactamase OXA-1.

In assay [6] the target is T6, OXA-11 (Pseudomonas aeruginosa, UniProt Q06778).
T6 construct: made in house; host or cells: E. coli
T6 sequence (Q06778 21-266): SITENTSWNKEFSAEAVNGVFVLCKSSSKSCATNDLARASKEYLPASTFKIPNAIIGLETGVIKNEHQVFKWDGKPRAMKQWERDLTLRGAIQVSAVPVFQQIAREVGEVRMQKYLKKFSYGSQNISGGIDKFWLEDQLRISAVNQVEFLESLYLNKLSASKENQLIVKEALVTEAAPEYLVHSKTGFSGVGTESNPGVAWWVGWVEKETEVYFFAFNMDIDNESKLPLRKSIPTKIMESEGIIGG
The assay is described as above. In kind it is biochemical.

The target of assay [7] is T7, OXA-15 (Pseudomonas aeruginosa, UniProt Q51574).
T7 construct: made in house; host or cells: E. coli
T7 sequence (Q51574 22-275): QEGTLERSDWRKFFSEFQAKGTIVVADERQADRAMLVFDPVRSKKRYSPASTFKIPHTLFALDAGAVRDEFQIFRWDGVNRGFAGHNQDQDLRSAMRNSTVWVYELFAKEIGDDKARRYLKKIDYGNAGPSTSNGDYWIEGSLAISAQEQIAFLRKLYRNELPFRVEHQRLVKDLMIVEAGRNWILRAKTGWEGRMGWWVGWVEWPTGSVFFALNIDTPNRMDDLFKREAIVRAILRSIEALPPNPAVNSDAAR
Description: biochemical.

In assay [8] the target is T8, OXA-48 (Klebsiella pneumoniae, UniProt Q6XEC0).
T8 construct: made in house; host or cells: E. coli
T8 sequence (Q6XEC0 23-265 limits assumed): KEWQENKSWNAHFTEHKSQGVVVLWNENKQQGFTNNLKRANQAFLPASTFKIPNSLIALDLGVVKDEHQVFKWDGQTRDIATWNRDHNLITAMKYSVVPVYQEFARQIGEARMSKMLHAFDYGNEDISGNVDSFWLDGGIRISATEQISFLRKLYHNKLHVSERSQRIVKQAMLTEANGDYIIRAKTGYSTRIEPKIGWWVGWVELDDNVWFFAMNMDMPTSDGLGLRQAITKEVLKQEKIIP
Briefly: β-lactamase inhibitory activity, determination of IC50 (nitrocefin hydrolysis). In kind it is biochemical. To be noted: class (D); nitrocefin 200 μM, 30 min pre-incubation; read-out: IC50 β-lactamase OXA-48.

Assay [9] deals with E. cloacae P99 (AmpC). Briefly: MIC of compounds alone, broth microdilution. Type of assay: cell-based. The settings on record: Enterobacter cloacae; strain P99 (E. cloacae); read-out: MIC compounds of the invention alone. The procedure:
(§1) Method 2: MIC of Compounds and Synergy with Ceftazidime Against Bacterial Isolates (Table 2 and 3)
(§2) Compounds of the present invention were assessed against genotyped bacterial strains alone or in combination with the β-lactam ceftazidime (CAZ). In the assays, MICs of said compounds, or of ceftazidime at fixed concentrations of said compounds were determined by the broth microdilution method according to the Clinical Laboratory Standards Institute (CLSI-M7-A7). Briefly, compounds alone according to the invention were prepared in DMSO and spotted (2 μL each) on sterile polystyrene plates (Corning, 3788). Compounds and ceftazidime dilutions were prepared in DMSO and spotted (1 μL each) on sterile polystyrene plates (Corning, 3788). Log phase bacterial suspensions were adjusted to a final density of 5×10^5 cfu/mL in cation-adjusted Mueller-Hinton broth (Becton-Dickinson) and added to each well (98 μL). Microplates were incubated for 16-20 h at 35° C. in ambient air. The MIC of the compounds was defined as the lowest concentration of said compounds that prevented bacterial growth as read by visual inspection. The MIC of ceftazidime at each compound concentration was defined as the lowest concentration of ceftazidime that prevented bacterial growth as read by visual inspection.

Assay [10] has as its system E. coli 131119 (TEM-1, OXA-48). Description: MIC of compounds alone, broth microdilution. Type of assay: cell-based. To be noted: Escherichia coli; strain 131119 (E. coli); read-out: MIC compounds of the invention alone. The procedure:
as §1, §2

The test system of assay [11] is E. coli 190317 (TEM-1, SHV-12, CTX-M-15, OXA-1). Briefly: MIC of compounds alone, broth microdilution. Type of assay: cell-based. To be noted: Escherichia coli, read-out: MIC compounds of the invention alone. On the procedure: as §1, §2
The test system of assay [12] is E. coli RGN238 (OXA-1). Briefly: MIC of compounds alone, broth microdilution. In kind it is cell-based. The settings on record: Escherichia coli; strain RGN238 (E. coli); read-out: MIC compounds of the invention alone. The procedure: as §1, §2
The subject of assay [13] is K. pneumoniae 6299 (TEM-1, SHV-11, OXA-163). Description: MIC of compounds alone, broth microdilution. In kind it is cell-based. To be noted: Klebsiella pneumoniae; strain 6299 (K. pneumoniae); read-out: MIC compounds of the invention alone. On the procedure:
as §1, §2

For assay [14], the system named is K. pneumoniae BAA-1898 (TEM-1, SHV-11, SHV-12, KPC-2). Briefly: MIC of compounds alone, broth microdilution. To be noted: Klebsiella pneumoniae, BAA1898; strain BAA-1898 (K. pneumoniae); read-out: MIC compounds of the invention alone. In kind it is cell-based. The procedure:
as §1, §2

In assay [15] the test system is P. aeruginosa CIP107051 (TEM-24). Briefly: MIC of compounds alone, broth microdilution. Type of assay: cell-based. To be noted: Pseudomonas aeruginosa; strain CIP107051 (P. aeruginosa); read-out: MIC compounds of the invention alone. The procedure: as §1, §2
The target of assay [16] is AmpC (P99) (Enterobacter cloacae, UniProt P05364). Description: β-lactamase inhibitory activity, determination of IC50 (nitrocefin hydrolysis).
AmpC (P99), sequence (P05364 21-381): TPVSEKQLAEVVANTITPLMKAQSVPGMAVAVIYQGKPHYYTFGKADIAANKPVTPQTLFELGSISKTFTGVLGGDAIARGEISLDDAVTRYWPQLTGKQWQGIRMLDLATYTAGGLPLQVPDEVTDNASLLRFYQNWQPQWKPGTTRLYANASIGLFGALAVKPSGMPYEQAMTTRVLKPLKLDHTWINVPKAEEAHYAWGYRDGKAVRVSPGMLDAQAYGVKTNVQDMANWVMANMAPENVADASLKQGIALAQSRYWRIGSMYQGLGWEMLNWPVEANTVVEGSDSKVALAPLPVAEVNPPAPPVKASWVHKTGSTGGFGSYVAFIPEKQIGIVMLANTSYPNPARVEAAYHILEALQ
Assay [17] concerns the target AmpC P. aeruginosa (Pseudomonas aeruginosa, UniProt P24735). The assay is described as above.

AmpC P. aeruginosa, sequence (P24735 27-397): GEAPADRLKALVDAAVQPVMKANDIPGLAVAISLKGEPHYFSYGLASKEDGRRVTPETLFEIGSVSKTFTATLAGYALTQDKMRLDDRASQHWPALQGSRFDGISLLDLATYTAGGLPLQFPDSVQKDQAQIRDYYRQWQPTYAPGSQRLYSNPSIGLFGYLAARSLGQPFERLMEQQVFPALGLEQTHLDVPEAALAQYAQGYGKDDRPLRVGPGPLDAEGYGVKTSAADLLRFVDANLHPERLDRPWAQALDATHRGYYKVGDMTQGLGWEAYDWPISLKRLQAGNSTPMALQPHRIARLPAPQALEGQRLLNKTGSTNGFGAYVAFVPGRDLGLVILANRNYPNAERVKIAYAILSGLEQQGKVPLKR
T1 sequence (P62593 24-286 limits assumed): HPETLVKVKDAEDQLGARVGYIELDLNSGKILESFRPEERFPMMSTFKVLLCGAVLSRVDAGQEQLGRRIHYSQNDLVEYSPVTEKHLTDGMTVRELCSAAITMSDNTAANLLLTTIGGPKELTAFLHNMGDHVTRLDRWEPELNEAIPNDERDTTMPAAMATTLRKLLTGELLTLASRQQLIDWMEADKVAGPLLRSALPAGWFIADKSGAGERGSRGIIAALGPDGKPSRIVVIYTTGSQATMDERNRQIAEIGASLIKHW
T5 sequence (P13661 26-276): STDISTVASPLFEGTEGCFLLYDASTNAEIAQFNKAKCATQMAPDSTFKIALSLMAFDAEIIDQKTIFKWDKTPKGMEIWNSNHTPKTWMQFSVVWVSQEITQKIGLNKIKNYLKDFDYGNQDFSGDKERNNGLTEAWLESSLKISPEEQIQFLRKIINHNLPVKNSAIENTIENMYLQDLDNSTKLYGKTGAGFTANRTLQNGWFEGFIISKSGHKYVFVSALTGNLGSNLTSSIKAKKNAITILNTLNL

`O=C1N2CC=C(c3cn[nH]c3)C(C2)N1OS(=O)(=O)[O-].[Na+]` (stereo not shown) [Example 1, Sodium (7-oxo-4-pyrazol-4-yl-1,6-diaza-bicyclo[3.2.1]oct-3-en-6-yl) sulfate]: the IC50 came to 13 nM in assay [1]; 29 nM in [2]; 26 nM in assay [3]; 770 nM in [4]; 1400 nM in [5]; 2900 nM in assay [6]. In addition, the IC50 in [7] amounted to 590 nM; in assay [8] it was 8.9 nM; in assay [16], 6100 nM; in assay [17], 9300 nM. Moreover, the MIC is > 32 µg/mL in assay [9]; > 32 µg/mL in assay [10]; 32 µg/mL in [11]; > 32 µg/mL in assay [12]; > 32 µg/mL in [13]; > 32 µg/mL in [14]. For the same molecule, the MIC in assay [15] was > 32 µg/mL.

As for `Cn1nccc1C1=CCN2CC1N(OS(=O)(=O)[O-])C2=O.[Na+]` (stereo not shown) [Example 2, Sodium [4-(2-methylpyrazol-3-yl)-7-oxo-1,6-diazabicyclo[3.2.1]oct-3-en-6-yl] sulfate], the IC50 turned out to be 2.7 nM in [1]; 6.4 nM in [2]; 33 nM in [3]; 1200 nM in assay [4]; 64 nM in [5]; 910 nM in assay [6]. Besides, the IC50 in assay [7] worked out at 9.8 nM; in [8], 2.8 nM; in assay [16] it was 670 nM; in assay [17], 960 nM. In addition, the MIC in assay [9], in [10], in [11], in assay [12], in [13] and in assay [14] was > 32 µg/mL throughout. Further, in assay [15], the MIC is > 32 µg/mL.

Turning to `O=C1N2CC=C(c3ncco3)C(C2)N1OS(=O)(=O)[O-].[Na+]` (stereo not shown) [Example 4, Sodium [4-(oxazol-2-yl)-7-oxo-1,6-diazabicyclo[3.2.1]oct-3-en-6-yl]sulfate], the IC50 in assay [1] turned out to be 2.9 nM; in [2], 8.4 nM; in assay [3] it was 7.5 nM; in assay [4], 390 nM; in assay [5], 260 nM; in assay [6], 800 nM. The IC50 in assay [7] was determined as 46 nM; in [8], 2.9 nM; in assay [16], 1500 nM; in [17], 940 nM. Moreover, the MIC in assay [9] is 16 µg/mL; in [10], 16 µg/mL; in [11] it was 8 µg/mL; in assay [12], 32 µg/mL; in assay [13] it was > 32 µg/mL; in [14], > 32 µg/mL. The MIC in assay [15] is > 32 µg/mL.

For `O=C1N2CC=C(c3ccncc3)C(C2)N1OS(=O)(=O)[O-].[Na+]` (stereo not shown) [Example 7, Sodium [4-(4-pyridyl)-7-oxo-1,6-diazabicyclo[3.2.1]oct-3-en-6-yl]sulfate], the IC50 worked out at 12 nM in [1]; 30 nM in [2]; 13 nM in assay [3]; 150 nM in assay [4]; 250 nM in [5]; 2300 nM in [6]. In addition, the IC50 in assay [7] was found to be 95 nM; in [8], 4.9 nM; in [16] it was 1700 nM; in assay [17], 2200 nM. The MIC in assay [9] was > 32 µg/mL; in assay [10], > 32 µg/mL; in [11] it was 8 µg/mL; in [12] it was > 32 µg/mL; in assay [13], > 32 µg/mL; in assay [14], > 32 µg/mL. Also, the MIC in assay [15] is > 32 µg/mL.

Take `Cn1cc(C2=CCN3CC2N(OS(=O)(=O)[O-])C3=O)ccc1=O.[Na+]` (stereo not shown) [Example 8, Sodium [4-(N-methyl-6-oxo-3-pyridyl)-7-oxo-1,6-diazabicyclo[3.2.1]oct-3-en-6-yl] sulfate]: the IC50 is 8.2 nM in assay [1]; 19 nM in [2]; 12 nM in [3]; 170 nM in assay [4]; 690 nM in [5]; 1400 nM in assay [6]. In addition, the IC50 in [7] is 140 nM; in [8] it was 2.2 nM; in assay [16], 1900 nM; in assay [17], 3300 nM. For the same molecule, the MIC in assay [9] was > 32 µg/mL; in assay [10], > 32 µg/mL; in [11], 8 µg/mL; in [12] it was > 32 µg/mL; in assay [13], > 32 µg/mL; in [14], > 32 µg/mL. Besides, in assay [15], the MIC was > 32 µg/mL.

As to `O=C1N2CC=C(c3cncnc3)C(C2)N1OS(=O)(=O)[O-].[Na+]` (stereo not shown) [Example 10, Sodium [4-(pyrimidin-5-yl)-7-oxo-1,6-diazabicyclo[3.2.1]oct-3-en-6-yl] sulfate], the IC50 in assay [1] came out at 7.7 nM; in assay [2], 21 nM; in assay [3], 8.3 nM; in assay [4], 130 nM; in [5], 200 nM; in [6] it was 1300 nM. Besides, the IC50 turned out to be 140 nM in assay [7], 6.1 nM in assay [8], 1100 nM in [16] and 2600 nM in assay [17]. Also, the MIC in [9] was 16 µg/mL; in assay [10], 16 µg/mL; in [11] it was > 32 µg/mL; in [12], > 32 µg/mL; in assay [13], > 32 µg/mL; in assay [14], > 32 µg/mL. The MIC in assay [15] was > 32 µg/mL.

On to `O=C1N2CC=C(c3ccccn3)C(C2)N1OS(=O)(=O)[O-].[Na+]` (stereo not shown) [Example 11, Sodium [4-(2-pyridyl)-7-oxo-1,6-diazabicyclo[3.2.1]oct-3-en-6-yl]sulfate], for which the IC50 in assay [1] came out at 27 nM; in assay [2], 56 nM; in assay [3], 29 nM; in [4] it was 1800 nM; in [5], 1300 nM; in [6] it was 6400 nM. Moreover, the IC50 is 310 nM in assay [7], 5.1 nM in assay [8], 8900 nM in [16] and 4600 nM in assay [17]. Moreover, the MIC in assay [9], in assay [10], in assay [11], in assay [12], in assay [13] and in [14] was > 32 µg/mL throughout. The MIC in assay [15] was > 32 µg/mL.

On to `O=C1N2CC=C(c3cnccn3)C(C2)N1OS(=O)(=O)[O-].[Na+]` (stereo not shown) [Example 12, Sodium [4-(pyrazin-2-yl)-7-oxo-1,6-diazabicyclo[3.2.1]oct-3-en-6-yl]sulfate], for which the IC50 in [1] was 3.1 nM; in [2] it was 6.9 nM; in assay [3] it was 5.7 nM; in assay [4], 310 nM; in assay [5], 350 nM; in assay [6] it was 1200 nM. Further, the IC50 in assay [7] was 66 nM; in assay [8], 3.2 nM; in assay [16] it was 1400 nM; in assay [17], 1600 nM. Moreover, the MIC in assay [9] is > 32 µg/mL; in assay [10], 16 µg/mL; in [11], > 32 µg/mL; in [12], > 32 µg/mL; in assay [13] it was > 32 µg/mL; in assay [14] it was > 32 µg/mL. Also, the MIC in assay [15] is > 32 µg/mL.
